According to patent US20250179055A1, “Substituted 2-(pyrrolidine-3-yl)acetic acid derivative, preparation method and use thereof” (INNOVSTONE THERAPEUTICS LIMITED, priority 2023, published 2025):

Target: Lp(a) assembly in HepG2 cells overexpressing ApoA protein (Homo sapiens (Human), UniProt P08519)
Test: ELISA assay on screening Lp(a) assembly inhibition
Format: cell-based
Conditions: HepG2 cells overexpressing ApoA protein, 24 h, ELISA of supernatant
Description: Test Example 1 and Methods of ELISA Assay on Screening Lp(a) Assembly Inhibition
• 1) Preheated the culture media, DPBS, and pancreatin in a 37° C. water bath in advance. • 2) Digested cells with pancreatin, transferred the cell suspension to a 15 mL centrifuge tube, and centrifuged at 1000 rpm for 5 min. • 3) Resuspended the cells with culture media and transferred the cell suspension to a new T75 cell culture flask. • 4) Cultured at 37° C. in a 5% CO2 incubator.
• 1) Seeded HepG2 cells overexpressing of ApoA protein into a 96-well plate at 100 μL per well and incubated overnight for attachment. • 2) Replaced with fresh culture media the next day, then added diluted compounds, and cultured the cell plate in a 5% CO2, 37° C. incubator for 24 h.
• 1) Added 10 μL of 1.5 M EACA to each well. • 2) Centrifuged at 1000 rpm for 1 min, and transferred 100 μL of cell culture supernatant to a pre-coated ELISA plate.
• 1) Added 100 μL of capture antibody to each well of a pre-coated ELISA plate and incubated overnight at 25° C. • 2) Added 300 μL of washing solution to each well and washed 5 times for 1 min each time. • 3) Added 100 μL of blocking solution to each well and incubated at 25° C. for 2 h. • 4) Added 300 μL of washing solution to each well and washed 5 times for 1 min each time. • 5) Added 100 μL of sample to each well and incubated at 25° C. for 1 h. • 6) Added 300 μL of washing solution to each well and washed 5 times for 1 min each time. • 7) Added 100 μL of detection antibody to each well and incubated at 25° C. for 1 h. • 8) Added 300 μL of washing solution to each well and washed 5 times for 1 min each time. • 9) Added 100 μL substrate solution (Color Reagent A: Color Reagent B, 1:1) to each well and incubated for 20 min at 25° C. in the dark. • 10) Added […] of stop solution to each well, gently blowed and sucked several times with the pipette tip, and read within 5 min.
[formula] • X: cpd concentration • Y: inhibition % • Top and Bottom: Plateaus in same units as Y • log IC50: same log units as X • HillSlope: Slope factor or Hill slope

Lp(a) assembly in HepG2 cells overexpressing ApoA protein, sequence (P08519 20-2040): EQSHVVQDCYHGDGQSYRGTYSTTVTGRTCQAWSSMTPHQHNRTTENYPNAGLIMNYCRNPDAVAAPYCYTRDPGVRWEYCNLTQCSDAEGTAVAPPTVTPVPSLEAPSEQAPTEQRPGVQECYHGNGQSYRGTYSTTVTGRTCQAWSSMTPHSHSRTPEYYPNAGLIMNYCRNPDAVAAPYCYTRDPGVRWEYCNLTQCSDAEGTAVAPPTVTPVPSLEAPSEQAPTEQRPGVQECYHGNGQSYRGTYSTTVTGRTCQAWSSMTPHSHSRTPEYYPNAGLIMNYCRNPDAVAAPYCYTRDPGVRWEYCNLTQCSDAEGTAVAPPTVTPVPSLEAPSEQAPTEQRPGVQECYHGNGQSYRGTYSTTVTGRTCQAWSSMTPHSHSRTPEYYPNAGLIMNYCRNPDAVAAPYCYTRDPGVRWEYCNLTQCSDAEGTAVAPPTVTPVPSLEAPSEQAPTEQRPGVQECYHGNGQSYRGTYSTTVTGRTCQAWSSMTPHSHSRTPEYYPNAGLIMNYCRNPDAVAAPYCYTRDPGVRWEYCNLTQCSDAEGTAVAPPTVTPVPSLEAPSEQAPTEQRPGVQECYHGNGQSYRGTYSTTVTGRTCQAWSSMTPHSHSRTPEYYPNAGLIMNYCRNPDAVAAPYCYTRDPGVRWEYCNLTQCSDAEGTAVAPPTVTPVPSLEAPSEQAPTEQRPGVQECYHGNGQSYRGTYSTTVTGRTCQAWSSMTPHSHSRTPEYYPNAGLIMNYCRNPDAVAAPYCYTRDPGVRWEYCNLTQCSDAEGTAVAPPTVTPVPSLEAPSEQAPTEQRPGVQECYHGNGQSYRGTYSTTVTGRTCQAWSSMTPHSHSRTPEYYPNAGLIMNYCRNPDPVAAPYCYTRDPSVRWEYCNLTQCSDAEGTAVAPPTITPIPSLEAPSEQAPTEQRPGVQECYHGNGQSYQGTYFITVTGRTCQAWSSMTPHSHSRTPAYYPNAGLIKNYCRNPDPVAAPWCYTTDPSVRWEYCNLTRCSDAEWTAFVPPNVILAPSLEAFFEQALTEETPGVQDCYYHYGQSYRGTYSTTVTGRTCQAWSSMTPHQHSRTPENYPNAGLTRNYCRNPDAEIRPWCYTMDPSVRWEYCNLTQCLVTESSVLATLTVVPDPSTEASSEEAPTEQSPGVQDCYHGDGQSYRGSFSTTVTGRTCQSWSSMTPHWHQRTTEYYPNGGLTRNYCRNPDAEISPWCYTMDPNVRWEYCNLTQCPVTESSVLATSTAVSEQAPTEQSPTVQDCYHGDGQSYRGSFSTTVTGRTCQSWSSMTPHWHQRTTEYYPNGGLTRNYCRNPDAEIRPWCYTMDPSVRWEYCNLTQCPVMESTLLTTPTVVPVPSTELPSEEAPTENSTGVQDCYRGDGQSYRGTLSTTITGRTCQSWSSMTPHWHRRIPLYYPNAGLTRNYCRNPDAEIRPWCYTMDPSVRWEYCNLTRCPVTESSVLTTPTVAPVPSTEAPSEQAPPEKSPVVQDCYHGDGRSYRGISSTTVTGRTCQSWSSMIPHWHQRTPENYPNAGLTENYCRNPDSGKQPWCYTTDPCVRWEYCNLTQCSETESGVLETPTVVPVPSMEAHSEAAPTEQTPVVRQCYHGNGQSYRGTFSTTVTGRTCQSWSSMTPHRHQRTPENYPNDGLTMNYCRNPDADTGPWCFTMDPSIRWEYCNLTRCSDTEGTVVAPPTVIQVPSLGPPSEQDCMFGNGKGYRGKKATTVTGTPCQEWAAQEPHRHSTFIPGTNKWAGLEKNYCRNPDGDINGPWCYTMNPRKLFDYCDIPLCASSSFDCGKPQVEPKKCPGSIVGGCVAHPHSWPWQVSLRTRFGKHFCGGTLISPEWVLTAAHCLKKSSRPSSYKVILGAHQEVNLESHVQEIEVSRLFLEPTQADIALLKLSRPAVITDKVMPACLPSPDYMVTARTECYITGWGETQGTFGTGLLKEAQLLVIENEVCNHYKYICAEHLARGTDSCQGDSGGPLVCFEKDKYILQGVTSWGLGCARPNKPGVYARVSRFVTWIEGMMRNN

Compound | IC50
O=C(O)[C@@H](Cc1ccc2occ(CCN(CCc3coc4ccc(C[C@H](C(=O)O)[C@H]5CCNC5)cc34)CCc3coc4ccc(C[C@H](C(=O)O)[C@H]5CCNC5)cc34)c2c1)[C@H]1CCNC1 [Compound 67, (2S,2′S,2″S)-3,3′,3″-((nitrilotris(ethane-2,1-diyl))tris(benzofuran-3,5-diyl))tris(2-((R)-pyrrolidin-3-yl)propanoic acid)] | 8.55 nM
O=C(O)[C@@H](Cc1cccc(CNC(=O)N(CCOc2cccc(C[C@H](C(=O)O)[C@H]3CCNC3)c2)Cc2cccc(C[C@H](C(=O)O)[C@H]3CCNC3)c2)c1)[C@H]1CCNC1 [Compound 141, (S)-3-(3-(2-(1,3-bis(3-((S)-2-carboxy-2-((R)-pyrrolidin-3-yl)ethyl)benzyl)ureido)ethoxy)phenyl)-2-((R)-pyrrolidin-3-yl)propanoic acid] | 1.02 nM
O=C(O)[C@@H](Cc1cccc(CN(CCOc2cccc(C[C@H](C(=O)O)[C@H]3CCNC3)c2)C(=O)CNc2cccc(C[C@H](C(=O)O)[C@H]3CCNC3)c2)c1)[C@H]1CCNC1 [Compound 134, (S)-3-(3-((2-((3-((S)-2-carboxy-2-((R)-pyrrolidin-3-yl)ethyl)benzyl)(2-(3-((S)-2-carboxy-2-((R)-pyrrolidin-3-yl)ethyl)phenoxy)ethyl)amino)-2-oxoethyl)amino)phenyl)-2-((R)-pyrrolidin-3-yl)propanoic acid] | 0.85 nM
O=C(O)[C@@H](Cc1cccc(CCN(Cc2cccc(C[C@H](C(=O)O)[C@H]3CCNC3)c2)C(=O)c2cccc(C[C@H](C(=O)O)[C@H]3CCNC3)c2)c1)[C@H]1CCNC1 [Compound 99, (S)-3-(3-(2-(3-((S)-2-carboxy-2-((R)-pyrrolidin-3-yl)ethyl)-N-(3-((S)-2-carboxy-2-((R)-pyrrolidin-3-yl)ethyl)benzyl)benzamido)ethyl)phenyl)-2-((R)-pyrrolidin-3-yl)propanoic acid] | 0.96 nM
O=C(O)[C@@H](Cc1cccc(CCN(CCc2cccc(C[C@H](C(=O)O)[C@H]3CCNC3)c2)CCc2cccc(C[C@H](C(=O)O)[C@H]3CCNC3)c2)c1)[C@H]1CCNC1 [Compound 65, (2S,2′S,2″S)-3,3′,3″-((nitrilotris(ethane-2,1-diyl))tris(benzene-3,1-diyl))tris(2-((R)-pyrrolidin-3-yl)propanoic acid)] | 0.87 nM
O=C(O)[C@@H](Cc1cccc(CN(Cc2cccc(C[C@H](C(=O)O)[C@H]3CCNC3)c2)Cc2ccc3oc(C[C@H](C(=O)O)[C@H]4CCNC4)cc3c2)c1)[C@H]1CCNC1 [Compound 126, (2S,2′S)-3,3′-(((((2-((S)-2-carboxy-2-((R)-pyrrolidin-3-yl)ethyl)benzofuran-5-yl)methyl)azanediyl)bis(methylene))bis(3,1-phenylene))bis(2-((R)-pyrrolidin-3-yl)propanoic acid)] | 1.26 nM
O=C(O)[C@@H](Cc1cccc(CCC(=O)N(CCNc2cccc(C[C@H](C(=O)O)[C@H]3CCNC3)c2)Cc2cccc(C[C@H](C(=O)O)[C@H]3CCNC3)c2)c1)[C@H]1CCNC1 [Compound 147, (S)-3-(3-(3-((3-((S)-2-carboxy-2-((R)-pyrrolidin-3-yl)ethyl)benzyl)(2-((3-((S)-2-carboxy-2-((R)-pyrrolidin-3-yl)ethyl)phenyl)amino)ethyl)amino)-3-oxopropyl)phenyl)-2-((R)-pyrrolidin-3-yl)propanoic acid] | 0.86 nM
O=C(O)[C@@H](Cc1cccc(CN(Cc2cccc(C[C@H](C(=O)O)[C@H]3CCNC3)c2)C(=O)c2cc(F)cc(C[C@H](C(=O)O)[C@H]3CCNC3)c2)c1)[C@H]1CCNC1 [Compound 12, (2S,2′S)-3,3′-((((3-((S)-2-carboxy-2-((R)-pyrrolidin-3-yl)ethyl)-5-fluorobenzoyl)azanediyl)bis(methylene))bis(3,1-phenylene))bis(2-((R)-pyrrolidin-3-yl)propanoic acid)] | 1.17 nM
[2H]C([2H])(c1cccc(C[C@H](C(=O)O)[C@H]2CCNC2)c1)N(Cc1cccc(C[C@H](C(=O)O)[C@H]2CCNC2)c1)Cc1cccc(C[C@H](C(=O)O)[C@H]2CCNC2)c1 [Compound 94, (2S,2′S)-3,3′-(((((3-((S)-2-carboxy-2-((R)-pyrrolidin-3-yl)ethyl)phenyl)methyl-d2)azanediyl)bis(methylene))bis(3,1-phenylene))bis(2-((R)-pyrrolidin-3-yl)propanoic acid)] | 0.65 nM
O=C(O)[C@@H](Cc1cccc(CN(Cc2cccc(C[C@H](C(=O)O)[C@H]3CCNC3)c2)Cc2cc3ccc(C[C@H](C(=O)O)[C@H]4CCNC4)cc3s2)c1)[C@H]1CCNC1 [Compound 11, (2S,2′S)-3,3′-(((((6-((S)-2-carboxy-2-((R)-pyrrolidin-3-yl)ethyl)benzo[b]thiophen-2-yl)methyl)azanediyl)bis(methylene))bis(3,1-phenylene))bis(2-((R)-pyrrolidin-3-yl)propanoic acid)] | 0.89 nM
O=C(O)[C@@H](Cc1cccc(COC(=O)N(CCOc2cccc(C[C@H](C(=O)O)[C@H]3CCNC3)c2)Cc2cccc(C[C@H](C(=O)O)[C@H]3CCNC3)c2)c1)[C@H]1CCNC1 [Compound 145, (S)-3-(3-(2-((3-((S)-2-carboxy-2-((R)-pyrrolidin-3-yl)ethyl)benzyl)(((3-((S)-2-carboxy-2-((R)-pyrrolidin-3-yl)ethyl)benzyl)oxy)carbonyl)amino)ethoxy)phenyl)-2-((R)-pyrrolidin-3-yl)propanoic acid] | 1.72 nM
Cn1c(C[C@H](C(=O)O)[C@H]2CCNC2)nc2ccc(CN(Cc3ccc4nc(C[C@H](C(=O)O)[C@H]5CCNC5)n(C)c4c3)Cc3ccc4nc(C[C@H](C(=O)O)[C@H]5CCNC5)n(C)c4c3)cc21 [Compound 133, (2S,2′S,2″S)-3,3′,3″-((nitrilotris(methylene))tris(1-methyl-1H-benzo[d]imidazole-6,2-diyl))tris(2-((R)-pyrrolidin-3-yl)propanoic acid)] | 0.94 nM
O=C(O)[C@@H](Cc1ccc2occ(CN(Cc3coc4ccc(C[C@H](C(=O)O)[C@H]5CCNC5)cc34)Cc3coc4ccc(C[C@H](C(=O)O)[C@H]5CCNC5)cc34)c2c1)[C@H]1CCNC1 [Compound 47, (2S,2′S,2″S)-3,3′,3″-((nitrilotris(methylene))tris(benzofuran-3,5-diyl))tris(2-((R)-pyrrolidin-3-yl)propanoic acid)] | 1.03 nM
O=C(O)[C@@H](Cc1cccc(CCN(CCc2cccc(C[C@H](C(=O)O)[C@H]3CCNC3)c2)C(=O)Cc2cccc(C[C@H](C(=O)O)[C@H]3CCNC3)c2)c1)[C@H]1CCNC1 [Compound 107, (2S,2′S)-3,3′-((((2-(3-((S)-2-carboxy-2-((R)-pyrrolidin-3-yl)ethyl)phenyl)acetyl)azanediyl)bis(ethane-2,1-diyl))bis(3,1-phenylene))bis(2-((R)-pyrrolidin-3-yl)propanoic acid)] | 1.66 nM
O=C(O)[C@@H](Cc1csc(CN(Cc2cc(C[C@H](C(=O)O)[C@H]3CCNC3)cs2)Cc2cc(C[C@H](C(=O)O)[C@H]3CCNC3)cs2)c1)[C@H]1CCNC1 [Compound 137, (2S,2′S,2″S)-3,3′,3″-((nitrilotris(methylene))tris(thiophene-5,3-diyl))tris(2-((R)-pyrrolidin-3-yl)propanoic acid)] | 1.08 nM
O=C(O)[C@@H](Cc1cccc(CC(=O)N(CCSc2cccc(C[C@H](C(=O)O)[C@H]3CCNC3)c2)Cc2cccc(C[C@H](C(=O)O)[C@H]3CCNC3)c2)c1)[C@H]1CCNC1 [Compound 158, (S)-3-(3-(2-((3-((S)-2-carboxy-2-((R)-pyrrolidin-3-yl)ethyl)benzyl)(2-((3-((S)-2-carboxy-2-((R)-pyrrolidin-3-yl)ethyl)phenyl)thio)ethyl)amino)-2-oxoethyl)phenyl)-2-((R)-pyrrolidin-3-yl)propanoic acid] | 1.65 nM
O=C(O)[C@@H](Cc1cccc(CCC(=O)N(CCOc2cccc(C[C@H](C(=O)O)[C@H]3CCNC3)c2)CCOc2cccc(C[C@H](C(=O)O)[C@H]3CCNC3)c2)c1)[C@H]1CCNC1 [Compound 148, (2S,2′S)-3,3′-(((((3-(3-((S)-2-carboxy-2-((R)-pyrrolidin-3-yl)ethyl)phenyl)propanoyl)azanediyl)bis(ethane-2,1-diyl))bis(oxy))bis(3,1-phenylene))bis(2-((R)-pyrrolidin-3-yl)propanoic acid)] | 1.5 nM
O=C(O)[C@@H](Cc1cc2cc(CN(Cc3ccc4sc(C[C@H](C(=O)O)[C@H]5CCNC5)cc4c3)Cc3ccc4sc(C[C@H](C(=O)O)[C@H]5CCNC5)cc4c3)ccc2s1)[C@H]1CCNC1 [Compound 104, (2S,2′S,2″S)-3,3′,3″-((nitrilotris(methylene))tris(benzo[b]thiophene-5,2-diyl))tris(2-((R)-pyrrolidin-3-yl)propanoic acid)] | 1.04 nM
